Experiment [1] has as its system light-evoked excitatory postsynaptic currents (EPSCs) in lamina I-II outer neurons. Briefly: Spinal cord slice whole-cell recording of light-evoked EPSCs from ChR2-expressing TRPV1 nociceptors. The class given is cell-based, mouse. From the text: FIG. 4. Opioid-induced spinal long-term potentiation (LTP) is initiated by presynaptic MOR in nociceptors. (a,b) MOR cKO mice crossed with a mouse line expressing Channel-rhodopsin2 (ChR2-eYFP) in a Cre-dependent manner produces expression of ChR2-eYFP in Trpv1^Cre+DRG nociceptor cell bodies and central terminals in the spinal cord dorsal horn. Scale bars=50 m, throughout. (c,d) Blue light-evoked (473 nm, 1.0 mW/cm^2, 0.2 ms, 0.05 Hz) excitatory postsynaptic currents (EPSCs) recorded in laminae I and II outer spinal neurons in slices from MOR cKO and littermate controls. Numbered inset traces correspond to individual EPSCs before, during, and after wash-out of bath applied DAMGO (500 nM; 5 min duration). Scale bar=100 pA, 10 ms. (c) DAMGO-induced depression of EPSC amplitude and rebound LTP after washout (Control+LTP; n=8/15 neurons) in control slices. […] Error bars are mean±SEM.
Adult mice (6-8 weeks old) were anesthetized with isoflurane, decapitated, and the vertebral column was rapidly removed and placed in oxygenated ice-cold dissection solution (in mM: 95 NaCl, 2.5 KCl, 1.25 NaH2PO4, 26 NaHCO3, 50 sucrose, 25 glucose, 6 MgCl2, 1.5 CaCl2, and 1 kynurenic acid, pH 7.4, 320 mOsm). The lumbar spinal cord was isolated, embedded in a 3% agarose block, and transverse slices (400 Lm thick) were made using a vibrating microtome (Leica V T 1200S). Slices were incubated in oxygenated recovery solution (in mM: 125 NaCl, 2.5 KCl, 1.25 NaH2PO4, 26 NaHCO3, 25 glucose, 6 MgCl2, and 1.5 CaCl2, pH 7.4, 320 mOsm) at 35° C. for 1 hour before recording. Patch-clamp recording in whole-cell configuration was performed at 32° C. on lamina I or lamina II outer zone neurons visualized with an Olympus microscope (BX51WI age-MTI). Slices were perfused at ˜2 ml/min with recording solution (in mM: 125 NaCl, 2.5 KCl, 1.25 NaH2PO4, 26 NaHCO3, 25 glucose, 1 MgCl2, 2 CaCl2, pH 7.4, 320 mOsm). Recordings were performed in voltage-clamp mode at a holding potential of −70 mV. Thick-walled borosilicate pipettes, having a resistance of 3-6 MOhm, were filled with internal solution (in mM: 120 potassium gluconate, 20 KCl, 2 MgCl2, 5 MgATP, 0.5 NaGTP, 20 HEPES, 0.5 EGTA, PH 7.25 with KOH, ˜300 mOsm). All data were acquired using a Multiclamp 700B amplifier and pClamp10 software (Molecular Devices). Sampling rate was 10 kHz and data were filtered at 2 kHz. Analysis of eEPSC peak amplitudes was done with Clampfit software (pClamp10, Molecular Devices). Graphs and statistical analysis were generated with Igor Pro (Wave Metrics).
To isolate the TRPV1 nociceptor mediated EPSCs, we crossed the TRPV1-Cre mice with Ai32 mice (Rosa-CAG-LSL-ChR2(H134R)-EYFP-WPRE) (Bardoni et al., 2014) to limit the channelrhodopsin 2 expression specifically to TRPV1 primary afferents. […]

In the next experiment the test system is wild-type C57Bl/6J mice. Briefly: Morphine and MNB combination in wild-type mice: nociceptive reflexes, affective-motivational behaviors, tolerance and OIH. It is filed as in vivo, mouse. How it is done: (a) Temporal raster plot of nociception-induced sensory-reflexive and affective-motivational behaviors in an inescapable noxious environment (enclosed 52.5° C. hotplate). […] MNB doses 0.0-1.0 mg/kg, n=10; MNB 10 mg/kg, n=7 for reflexive tests and n=5 for affective-motivational tests. Best-fit lines were generated following non-linear regression analysis based on the % MPE for each mouse. One-way ANOVA+Bonferroni (left panels of b,d,f-k). ★ P<0.05. Error bars are mean±SEM. Overlaid points are individual animal scores. PID=post-injury day.
(b) Visual depiction of reflexive paw flinching behavior. (c) Latencies to the first paw flinch. (d) Number of paw flinches (see FIG. 17). (e) Visual depiction of hindpaw guarding behavior. (f) Latency to the first onset of hindpaw guarding. (g) Total duration of time spent engaged in hindpaw guarding. (h) Visual depiction of hindpaw attending. (i) Latency to the first onset of hindpaw attending. (j) Total duration of time spent engaging in hindpaw attending. (k) Visual depiction of escape jumping behavior. (1) Latency to the first jump. […] (m) Number of escape jumps. […] Error bars are±SEM.
Repeated Measures 2-way ANOVA+Bonferonni. ★ P<0.05. Error bars are mean±SEM.
To evaluate mechanical reflexive hypersensitivity (Weibel et al., 2013), we used a logarithmically increasing set of 8 von Frey filaments (Stoelting), ranging in gram force from 0.007 to 6.0 g. These were applied perpendicular to the plantar hindpaw with sufficient force to cause a slight bending of the filament. A positive response was characterized as a rapid withdrawal of the paw away from the stimulus filament within 4 s. Using the up-down statistical method (Solway et al., 2011), the 50% withdrawal mechanical threshold scores were calculated for each mouse and then averaged across the experimental groups.
To evaluate affective-motivational responses to an acute, focal thermal stimulus (Madisen et al., 2012), we applied either a single, unilateral 50 μl drop of 55° C. water or acetone (evaporative cooling) to the left hindpaw, and the duration of attending behavior was collected for up to 30 seconds after the stimulation. Only one stimulation per thermal drop was applied on a given testing session, in order to prevent behavioral sensitization that can result from multiple noxious stimulations and then averaging those responses.
To evaluate affective-motivational responses to a sustained, inescapable noxious thermal stimulus, mice were placed on a 52.5° C. hot plate for 45 seconds. A high-speed camera (on the side, level with the hot plate floor) was used to capture the movement, speed, velocity, and detailed reflexive and affective-motivational behaviors of the mice, as described above.
As opposed to the standard hot-plate test, all behaviors such as reflexive paw flinching (rapid flicking of the limb), paw attending (directed licking of the limb), paw guarding (intentional lift protection of the limb), and escape jumping for the duration of the trial were scored. This allowed the analysis of the high-speed videos, blinded to plate temperature or treatment, for the total time spent engaging in affective-motivational behaviors and the number of nociceptive reflexives, as opposed to the traditional metric of merely determining the latency to the first reflexive response.

In a further experiment the test system is laxation responses. To be noted: subcutaneous MNB 5, 12.5 or 20 mg; clinical; cited from earlier work.

On to `C[C@@H](NC(=O)[C@@H](N)Cc1ccc(O)cc1)C(=O)NCC(=O)N(C)[C@@H](Cc1ccccc1)C(=O)NCCO` [DAMGO, [D-Ala^2, N-MePhe^4, Gly-ol^5]-enkephalin], for which the “EPSC amplitude during DAMGO” value in experiment [1] (MOR cKO slices, 9 out of 9 neurons, 500 nM) is 98±8.12 % of control. Further, in experiment [1] (MOR cKO slices, 9 out of 9 neurons, after washout of 500 nM), the “EPSC amplitude after DAMGO-washout” value worked out at 96.2±11.9%. In addition, in experiment [1] (control slices, 8 out of 15 neurons, thirty minutes after washout of 500 nM), the “EPSC amplitude after washout (LTP)” value is 142.2±6.1 % of control. The “depression of light-evoked EPSCs” value in experiment [1] (control slices, all 15 recorded neurons, 500 nM bath application, at 5 min of application) turned out to be 52±10.5 % inhibition.
Take `C[N@+]1(CC2CC2)CC[C@]23c4c5ccc(O)c4O[C@H]2C(=O)CC[C@@]3(O)[C@H]1C5` [MNB, methylnaltrexone bromide]: the “dose-response of MNB effect on morphine tolerance, latency to nociceptive reflexes (paw flinch)” value in the experiment on wild-type C57Bl/6J mice (45 s 52.5° C. hot plate, morphine 10 mg/kg + MNB 0.1-10.0 mg/kg) was “bell-shaped dose-response curve”. Besides, the “effect of MNB on morphine antinociceptive effects” value in the experiment with wild-type C57Bl/6J mice (MNB 0.1-10.0 mg/kg combined with morphine) is reported as “did not alter morphine antinociceptive effects”. Further, the “onset of morphine antinociceptive tolerance and OIH, 10-day treatment” value in the experiment on wild-type C57Bl/6J mice (MNB 1 or 10 mg/kg + morphine for 10 days, von Frey and 52.5° C. hotplate) was “prevents the onset of morphine antinociceptive tolerance and OIH”. Moreover, the “onset of tolerance and OIH” value in the experiment on wild-type C57Bl/6J mice (morphine 10 mg/kg + MNB 0.1-10.0 mg/kg once daily for 7 days) was “dose-dependently prevents the onset of morphine antinociceptive tolerance and OIH”. Further, the “laxation responses, percentage of responders” value in the experiment with laxation responses is given as “higher percentage of responders after 5 or 12.5 mg subcutaneous MNB compared to a 20 mg dose”.
